Reference: paper PMC9851200, “Multiparameter phenotypic screening for endogenous TFEB and TFE3 translocation identifies novel chemical series modulating lysosome function” (Autophagy, 2022)
Like-named read-outs stand apart in the source and are kept apart here.

Columns and labels:
Test in all cases: biochemical
Assay type in all cases: binding
[1] = biological target: cellular kinases of SH-SY5Y cells (Homo sapiens, UniProt P41743); conditions: 2µM; SH-SY5Y cells; Labeling Site Lys1; IYAMKVVK; read-out: KiNativ in-cell binding, % Inhibition, PRKCI/PKCi
Description: (§1) As KINOMEscan is an in vitro assay, and as different cell types have variable kinase expression profiles we sought to determine the kinase binding profile in our SH-SY5Y TFEB-relocalization cell model. […] Bound kinases were pulled down and analyzed by mass spectrometry to determine the in situ kinase binding profile for each compound.

[2] = biological target: T1, cellular kinases of SH-SY5Y cells (Homo sapiens, UniProt P51957); conditions: 2µM; SH-SY5Y cells; Labeling Site Lys2; DLKTQNVFLTR; read-out: KiNativ in-cell binding, % Inhibition, NEK4
T1 construct: endogenous in cells; host or cells: SH-SY5Y
T1 sequence (P51957 whole entry): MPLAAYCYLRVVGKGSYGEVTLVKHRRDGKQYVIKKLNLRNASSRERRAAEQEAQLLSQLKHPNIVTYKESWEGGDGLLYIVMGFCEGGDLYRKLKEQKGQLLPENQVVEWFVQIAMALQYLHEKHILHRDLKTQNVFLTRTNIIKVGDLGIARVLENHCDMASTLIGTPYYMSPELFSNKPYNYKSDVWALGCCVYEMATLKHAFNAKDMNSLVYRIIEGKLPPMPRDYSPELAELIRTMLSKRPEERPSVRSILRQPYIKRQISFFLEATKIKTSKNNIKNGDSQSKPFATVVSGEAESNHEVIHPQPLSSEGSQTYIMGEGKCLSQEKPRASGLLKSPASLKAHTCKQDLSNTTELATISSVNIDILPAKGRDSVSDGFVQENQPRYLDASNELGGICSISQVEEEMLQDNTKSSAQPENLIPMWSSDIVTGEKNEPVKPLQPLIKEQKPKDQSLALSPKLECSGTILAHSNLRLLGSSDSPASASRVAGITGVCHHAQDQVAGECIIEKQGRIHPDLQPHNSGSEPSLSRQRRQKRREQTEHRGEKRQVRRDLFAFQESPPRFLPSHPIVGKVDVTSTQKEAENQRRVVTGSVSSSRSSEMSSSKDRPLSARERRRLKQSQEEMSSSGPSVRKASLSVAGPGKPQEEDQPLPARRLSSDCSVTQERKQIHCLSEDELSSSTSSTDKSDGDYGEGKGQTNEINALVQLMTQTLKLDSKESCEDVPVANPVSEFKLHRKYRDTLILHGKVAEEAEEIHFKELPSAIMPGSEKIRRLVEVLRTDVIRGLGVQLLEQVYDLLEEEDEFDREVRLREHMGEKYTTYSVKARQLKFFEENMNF
Description: as §1

[3] = biological target: cellular kinases of SH-SY5Y cells (Homo sapiens, UniProt Q9Y2U5); conditions: 2µM; SH-SY5Y cells; Labeling Site Lys1; ELAVKQVQFDPDSPETSKEVNALECEIQLLK; read-out: KiNativ in-cell binding, % Inhibition, MAP3K2
Description: as §1

[4] = biological target: T2, cellular kinases of SH-SY5Y cells (Homo sapiens, UniProt Q9UL54); conditions: 2µM; SH-SY5Y cells; Labeling Site Lys2; DVKAGNILLSEPGLVK; read-out: KiNativ in-cell binding, % Inhibition, TAOK2/TAO2
T2 construct: endogenous in cells; host or cells: SH-SY5Y
T2 sequence (Q9UL54 whole entry): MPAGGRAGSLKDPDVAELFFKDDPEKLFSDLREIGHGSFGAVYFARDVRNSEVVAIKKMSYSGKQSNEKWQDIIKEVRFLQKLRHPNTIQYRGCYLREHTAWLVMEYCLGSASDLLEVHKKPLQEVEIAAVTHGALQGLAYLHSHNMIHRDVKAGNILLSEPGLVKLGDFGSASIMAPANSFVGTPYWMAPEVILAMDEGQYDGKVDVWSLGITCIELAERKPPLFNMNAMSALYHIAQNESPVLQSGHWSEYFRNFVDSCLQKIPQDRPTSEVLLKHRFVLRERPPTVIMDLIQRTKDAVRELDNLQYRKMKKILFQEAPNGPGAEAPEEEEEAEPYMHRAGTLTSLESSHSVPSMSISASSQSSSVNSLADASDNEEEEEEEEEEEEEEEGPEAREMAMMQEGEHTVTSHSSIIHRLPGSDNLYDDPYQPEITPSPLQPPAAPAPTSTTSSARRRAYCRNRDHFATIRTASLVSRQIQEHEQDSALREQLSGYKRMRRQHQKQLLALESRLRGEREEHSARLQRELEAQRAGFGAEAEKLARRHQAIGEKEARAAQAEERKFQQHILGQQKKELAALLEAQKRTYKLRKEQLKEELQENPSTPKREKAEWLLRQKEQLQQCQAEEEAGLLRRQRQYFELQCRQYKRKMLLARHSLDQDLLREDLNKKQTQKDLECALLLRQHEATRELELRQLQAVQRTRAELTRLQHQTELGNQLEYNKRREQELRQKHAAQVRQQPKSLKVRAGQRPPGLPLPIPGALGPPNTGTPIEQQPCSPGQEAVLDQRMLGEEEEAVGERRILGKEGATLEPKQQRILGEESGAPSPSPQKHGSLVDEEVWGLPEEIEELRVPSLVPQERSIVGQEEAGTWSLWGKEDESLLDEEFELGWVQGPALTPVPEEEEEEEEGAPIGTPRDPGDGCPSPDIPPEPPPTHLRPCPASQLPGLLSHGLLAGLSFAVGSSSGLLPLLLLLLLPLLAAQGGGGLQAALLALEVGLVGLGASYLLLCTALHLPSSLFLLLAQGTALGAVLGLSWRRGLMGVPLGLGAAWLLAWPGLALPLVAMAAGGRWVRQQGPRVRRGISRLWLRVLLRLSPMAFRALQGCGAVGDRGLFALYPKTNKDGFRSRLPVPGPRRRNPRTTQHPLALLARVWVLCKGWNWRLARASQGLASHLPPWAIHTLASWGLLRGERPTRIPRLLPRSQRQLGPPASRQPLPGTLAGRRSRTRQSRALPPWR
Description: as §1

[5] = biological target: cellular kinases of SH-SY5Y cells (Homo sapiens, UniProt O14757); conditions: 2µM; SH-SY5Y cells; Labeling Site Lys2; DIKPENLLLDER; read-out: KiNativ in-cell binding, % Inhibition, CHEK1/CHK1
Chain of cellular kinases of SH-SY5Y cells (Homo sapiens, UniProt O14757) (O14757 whole entry): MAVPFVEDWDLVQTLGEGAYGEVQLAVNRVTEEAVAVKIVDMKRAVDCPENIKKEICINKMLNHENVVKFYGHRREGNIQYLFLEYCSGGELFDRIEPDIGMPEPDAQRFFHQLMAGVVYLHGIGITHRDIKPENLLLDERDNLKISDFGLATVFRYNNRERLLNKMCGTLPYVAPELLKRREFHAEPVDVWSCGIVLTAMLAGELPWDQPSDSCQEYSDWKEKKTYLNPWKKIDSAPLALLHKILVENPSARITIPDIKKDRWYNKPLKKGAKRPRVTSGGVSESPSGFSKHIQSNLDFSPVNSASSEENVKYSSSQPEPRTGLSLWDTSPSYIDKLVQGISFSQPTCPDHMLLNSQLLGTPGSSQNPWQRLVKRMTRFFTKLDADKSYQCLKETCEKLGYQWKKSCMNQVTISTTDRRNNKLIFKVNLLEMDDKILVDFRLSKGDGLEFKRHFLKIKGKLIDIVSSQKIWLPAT
Description: as §1

[6] = biological target: cellular kinases of SH-SY5Y cells (Homo sapiens, UniProt O14965); conditions: 2µM, SH-SY5Y cells, read-out: KiNativ in-cell binding, % Inhibition, AURKA/AurA
Chain of cellular kinases of SH-SY5Y cells (Homo sapiens, UniProt O14965) (O14965 whole entry): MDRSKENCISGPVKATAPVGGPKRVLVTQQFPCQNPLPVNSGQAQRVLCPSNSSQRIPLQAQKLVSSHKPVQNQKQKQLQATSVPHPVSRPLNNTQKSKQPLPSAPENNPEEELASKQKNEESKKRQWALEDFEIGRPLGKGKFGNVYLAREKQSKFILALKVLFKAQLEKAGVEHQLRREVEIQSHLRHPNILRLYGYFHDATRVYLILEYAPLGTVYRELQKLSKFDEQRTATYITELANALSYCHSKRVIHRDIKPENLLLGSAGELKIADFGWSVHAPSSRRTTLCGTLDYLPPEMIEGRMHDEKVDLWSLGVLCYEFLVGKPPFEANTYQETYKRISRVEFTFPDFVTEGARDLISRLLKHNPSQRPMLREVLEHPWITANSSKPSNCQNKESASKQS
Description: as §1

[7] = biological target: T3, cellular kinases of SH-SY5Y cells (Homo sapiens, UniProt Q15831); conditions: 2µM; SH-SY5Y cells; Labeling Site Lys2; DIKPGNLLLTTGGTLK; read-out: KiNativ in-cell binding, % Inhibition, STK11/LKB1
T3 construct: endogenous in cells; host or cells: SH-SY5Y
Description: as §1

[8] = biological target: cellular kinases of SH-SY5Y cells (Homo sapiens, UniProt Q7KZI7); conditions: 2µM; SH-SY5Y cells; Labeling Site Lys1; EVAVKIIDKTQLNSSSLQK; read-out: KiNativ in-cell binding, % Inhibition, MARK2
Description: as §1

[9] = biological target: T4, cellular kinases of SH-SY5Y cells (Homo sapiens, UniProt Q9C0K7); conditions: 2µM; SH-SY5Y cells; labeling site Lys1; peptide HTPTGTLVTIKITNLENCNEER
T4 construct: endogenous in cells; host or cells: SH-SY5Y
Description: as §1

[10] = biological target: cellular kinases of SH-SY5Y cells (Homo sapiens, UniProt P27361); conditions: 2µM; SH-SY5Y cells; Labeling Site Lys2; DLKPSNLLINTTCDLK; read-out: KiNativ in-cell binding, % Inhibition, MAPK3/Erk1
Description: as §1

[11] = biological target: T5, cellular kinases of SH-SY5Y cells (Homo sapiens, UniProt Q00537); conditions: 2µM; SH-SY5Y cells; Labeling Site Lys2; DLKPQNLLINEK; read-out: KiNativ in-cell binding, % Inhibition, CDK17/PCTAIRE2
T5 construct: endogenous in cells; host or cells: SH-SY5Y
Description: as §1

[12] = biological target: cellular kinases of SH-SY5Y cells (Homo sapiens, UniProt P00533); conditions: 2µM, SH-SY5Y cells, read-out: KiNativ in-cell binding, % Inhibition, EGFR, EGFR-L858R
Chain of cellular kinases of SH-SY5Y cells (Homo sapiens, UniProt P00533) (P00533 25-1210): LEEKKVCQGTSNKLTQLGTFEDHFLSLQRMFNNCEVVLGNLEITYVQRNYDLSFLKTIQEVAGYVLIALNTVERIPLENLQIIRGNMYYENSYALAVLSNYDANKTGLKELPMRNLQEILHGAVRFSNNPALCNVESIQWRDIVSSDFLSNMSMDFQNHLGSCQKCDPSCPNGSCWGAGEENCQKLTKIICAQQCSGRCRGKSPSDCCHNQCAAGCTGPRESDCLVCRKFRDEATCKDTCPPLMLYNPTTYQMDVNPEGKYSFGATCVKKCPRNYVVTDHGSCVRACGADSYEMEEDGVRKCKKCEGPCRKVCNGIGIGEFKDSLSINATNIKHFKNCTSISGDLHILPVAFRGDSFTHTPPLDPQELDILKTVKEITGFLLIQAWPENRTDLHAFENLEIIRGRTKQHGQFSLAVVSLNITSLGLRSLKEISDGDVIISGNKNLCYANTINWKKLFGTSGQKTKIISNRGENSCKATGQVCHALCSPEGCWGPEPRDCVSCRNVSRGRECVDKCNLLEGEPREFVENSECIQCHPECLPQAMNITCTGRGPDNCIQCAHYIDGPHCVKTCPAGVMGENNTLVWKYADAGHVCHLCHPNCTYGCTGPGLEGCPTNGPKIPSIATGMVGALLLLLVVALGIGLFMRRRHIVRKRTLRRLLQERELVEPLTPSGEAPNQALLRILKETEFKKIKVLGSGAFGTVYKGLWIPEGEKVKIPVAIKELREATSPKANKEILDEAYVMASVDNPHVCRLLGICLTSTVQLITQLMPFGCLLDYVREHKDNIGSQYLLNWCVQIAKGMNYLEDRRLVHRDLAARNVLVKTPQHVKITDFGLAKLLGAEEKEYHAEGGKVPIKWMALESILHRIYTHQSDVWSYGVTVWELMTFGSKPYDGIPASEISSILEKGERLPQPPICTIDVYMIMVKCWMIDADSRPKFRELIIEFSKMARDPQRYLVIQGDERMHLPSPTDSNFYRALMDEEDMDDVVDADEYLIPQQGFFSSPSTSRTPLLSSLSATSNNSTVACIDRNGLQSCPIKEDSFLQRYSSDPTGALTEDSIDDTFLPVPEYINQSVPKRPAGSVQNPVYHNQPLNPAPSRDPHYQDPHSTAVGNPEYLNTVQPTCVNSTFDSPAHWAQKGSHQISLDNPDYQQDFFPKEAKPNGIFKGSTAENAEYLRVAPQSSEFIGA
Description: as §1

[13] = biological target: cellular kinases of SH-SY5Y cells (Homo sapiens, UniProt Q96GD4); conditions: 2µM; SH-SY5Y cells; Labeling Site Lys1; SHFIVALKVLFK; read-out: KiNativ in-cell binding, % Inhibition, AURKB/AurB
Chain of cellular kinases of SH-SY5Y cells (Homo sapiens, UniProt Q96GD4) (Q96GD4 whole entry): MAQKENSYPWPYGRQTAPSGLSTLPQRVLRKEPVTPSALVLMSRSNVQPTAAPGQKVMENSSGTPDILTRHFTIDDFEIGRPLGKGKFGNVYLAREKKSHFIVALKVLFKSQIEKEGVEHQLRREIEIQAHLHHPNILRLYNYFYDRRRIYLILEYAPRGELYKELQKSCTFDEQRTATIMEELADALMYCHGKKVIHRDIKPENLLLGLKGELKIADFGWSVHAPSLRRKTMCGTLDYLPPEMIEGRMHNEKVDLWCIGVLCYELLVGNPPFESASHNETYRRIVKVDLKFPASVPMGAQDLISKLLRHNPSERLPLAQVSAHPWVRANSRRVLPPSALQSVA
Description: as §1

[14] = biological target: T6, cellular kinases of SH-SY5Y cells (Homo sapiens, UniProt Q13523); conditions: 2µM; SH-SY5Y cells; Labeling Site Lys2; CNILHADIKPDNILVNESK; read-out: KiNativ in-cell binding, % Inhibition, PRPF4B
T6 construct: endogenous in cells; host or cells: SH-SY5Y
Description: as §1

[15] = biological target: cellular kinases of SH-SY5Y cells (Homo sapiens, UniProt P51812); conditions: 2µM; SH-SY5Y cells; Labeling Site Lys2; DLKPSNILYVDESGNPESIR; read-out: KiNativ in-cell binding, % Inhibition, RPS6KA3/RSK2 domain2
Description: as §1

[16] = biological target: T7, cellular kinases of SH-SY5Y cells (Homo sapiens, UniProt Q86UX6); conditions: 2µM; SH-SY5Y cells; Labeling Site Lys2; DVKPDNILLDER; read-out: KiNativ in-cell binding, % Inhibition, STK32C/YANK3
T7 construct: endogenous in cells; host or cells: SH-SY5Y
Description: as §1

[17] = biological target: cellular kinases of SH-SY5Y cells (Homo sapiens, UniProt Q00535); conditions: 2µM, SH-SY5Y cells, read-out: KiNativ in-cell binding, % Inhibition, CDK5
Chain of cellular kinases of SH-SY5Y cells (Homo sapiens, UniProt Q00535) (Q00535 whole entry): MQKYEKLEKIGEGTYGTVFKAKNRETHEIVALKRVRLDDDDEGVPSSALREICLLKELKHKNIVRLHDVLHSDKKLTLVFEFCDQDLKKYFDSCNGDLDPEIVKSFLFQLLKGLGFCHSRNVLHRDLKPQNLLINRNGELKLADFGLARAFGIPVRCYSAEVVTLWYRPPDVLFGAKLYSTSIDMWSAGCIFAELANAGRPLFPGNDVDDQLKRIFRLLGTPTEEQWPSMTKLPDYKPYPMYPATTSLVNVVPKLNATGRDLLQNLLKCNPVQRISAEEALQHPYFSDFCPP
Description: as §1

[18] = biological target: cellular kinases of SH-SY5Y cells (Homo sapiens, UniProt Q13163); conditions: 2µM; SH-SY5Y cells; Labeling Site Lys2; DVKPSNMLVNTR; read-out: KiNativ in-cell binding, % Inhibition, MAP2K5
Description: as §1

[19] = biological target: T8, cellular kinases of SH-SY5Y cells (Homo sapiens, UniProt O15021); conditions: 2µM; SH-SY5Y cells; Labeling Site Lys2; DLKPDNLLVTSMGHIK; read-out: KiNativ in-cell binding, % Inhibition, MAST4
T8 construct: endogenous in cells; host or cells: SH-SY5Y
Description: as §1

With `Cc1cccc(-c2nc(Nc3ccc4ncsc4c3)c3ccccc3n2)n1` [NK140] as the molecule, how does the inhibition at 2 µM [1] read?
The inhibition at 2 µM was -1.3%.

What about the inhibition at 2 µM [2] of the same molecule?
The inhibition at 2 µM was -36%.

And the inhibition at 2 µM [3]?
Its inhibition at 2 µM is -2%.

And the inhibition at 2 µM [4]?
The inhibition at 2 µM was 23.9%.

What about the inhibition at 2 µM [5] of the same molecule?
Its inhibition at 2 µM is 16%.

What about the inhibition at 2 µM ([6]; Labeling Site Lys1, FILALKVLFK) of the same molecule?
The inhibition at 2 µM was 8.2%.

And the inhibition at 2 µM ([6]; Labeling Site Lys2, DIKPENLLLGSAGELK)?
The inhibition at 2 µM was 18%.

What about the inhibition at 2 µM [7] of the same molecule?
The inhibition at 2 µM was 58%.

What about the inhibition at 2 µM [8] of the same molecule?
The inhibition at 2 µM was 10.5%.

And the “KiNativ in-cell binding, STRADB” value [9]?
The value was 0.5.

And the inhibition at 2 µM [10]?
Its inhibition at 2 µM is 32.4%.

What about the inhibition at 2 µM [11] of the same molecule?
The inhibition at 2 µM was 13.2%.

What about the inhibition at 2 µM ([12]; Labeling Site Activation Loop, LLGAEEKEYHAEGGKVPIK) of the same molecule?
Its inhibition at 2 µM is 33.5%.

What about the inhibition at 2 µM ([12]; Labeling Site Lys1, IPVAIKELR) of the same molecule?
The inhibition at 2 µM was 14.4%.

And the inhibition at 2 µM [13]?
Its inhibition at 2 µM is 27.7%.

And the inhibition at 2 µM [14]?
Its inhibition at 2 µM is 32.3%.

And the inhibition at 2 µM [15]?
The inhibition at 2 µM was -54.8%.

And the inhibition at 2 µM [16]?
The inhibition at 2 µM was -34.7%.

What about the inhibition at 2 µM ([17]; Labeling Site Lys1, NRETHEIVALKR) of the same molecule?
Its inhibition at 2 µM is -44.9%.

And the inhibition at 2 µM ([17]; Labeling Site Lys2, DLKPQNLLINR)?
The inhibition at 2 µM was -39%.

And the inhibition at 2 µM [18]?
Its inhibition at 2 µM is -14.7%.

What about the inhibition at 2 µM [19] of the same molecule?
Its inhibition at 2 µM is 27.2%.
